Experimental data: ChEMBL document CHEMBL3124779, “Discovery of ABT-267, a pan-genotypic inhibitor of HCV NS5A” (J Med Chem, 2014)

How the values were obtained:
Hepatitis C virus [1] = test: Resistant ratio of EC50 for wild type HCV1b to EC50 for HCV1b harboring NS5A L31V mutant infected in human HuH7 cells; format: functional, Hepacivirus hominis, genotype 1b, Huh-7
Hepatitis C virus [2] = test: Resistant ratio of EC50 for wild type HCV1b to EC50 for HCV1b harboring NS5A L28T mutant infected in human HuH7 cells; format: functional, Hepacivirus hominis, genotype 1b, Huh-7
Hepatitis C virus [3] = test: Resistant ratio of EC50 for wild type HCV1a to EC50 for HCV1a harboring NS5A Q30R mutant infected in human HuH7 cells; format: functional, Hepacivirus hominis, subtype 1a, Huh-7
Hepatitis C virus [4] = test: Resistant ratio of EC50 for wild type HCV1a to EC50 for HCV1a harboring NS5A H58D mutant infected in human HuH7 cells; format: functional, Hepacivirus hominis, subtype 1a, Huh-7
Hepatitis C virus [5] = test: Antiviral activity against HCV1b harboring NS5A L31V and Y93H mutant infected in human HuH7 cells assessed as inhibition of viral replication after 4 days by luciferase reporter gene assay; format: functional, Hepacivirus hominis, genotype 1b, Huh-7
Hepatitis C virus [6] = test: Antiviral activity against HCV1b harboring NS5A L31M and Y93H mutant infected in human HuH7 cells assessed as inhibition of viral replication after 4 days by luciferase reporter gene assay; format: functional, Hepacivirus hominis, genotype 1b, Huh-7
Hepatitis C virus [7] = test: Antiviral activity against HCV1b harboring NS5A L31F and Y93H mutant infected in human HuH7 cells assessed as inhibition of viral replication after 4 days by luciferase reporter gene assay; format: functional, Hepacivirus hominis, genotype 1b, Huh-7
Hepatitis C virus [8] = test: Antiviral activity against HCV1b harboring NS5A L28M and Y93H mutant infected in human HuH7 cells assessed as inhibition of viral replication after 4 days by luciferase reporter gene assay; format: functional, Hepacivirus hominis, genotype 1b, Huh-7
Hepatitis C virus [9] = test: Antiviral activity against HCV1b harboring NS5A L31V mutant infected in human HuH7 cells assessed as inhibition of viral replication after 4 days by luciferase reporter gene assay; format: functional, Hepacivirus hominis, genotype 1b, Huh-7
Hepatitis C virus [10] = test: Antiviral activity against HCV1b harboring NS5A L31F mutant infected in human HuH7 cells assessed as inhibition of viral replication after 4 days by luciferase reporter gene assay; format: functional, Hepacivirus hominis, genotype 1b, Huh-7
Hepatitis C virus [11] = test: Antiviral activity against HCV1b harboring NS5A L28T mutant infected in human HuH7 cells assessed as inhibition of viral replication after 4 days by luciferase reporter gene assay; format: functional, Hepacivirus hominis, genotype 1b, Huh-7
Hepatitis C virus [12] = test: Antiviral activity against HCV1a harboring NS5A Y93H mutant infected in human HuH7 cells assessed as inhibition of viral replication after 4 days by luciferase reporter gene assay; format: functional, Hepacivirus hominis, subtype 1a, Huh-7
Hepatitis C virus [13] = test: Antiviral activity against HCV1a harboring NS5A M28V mutant infected in human HuH7 cells assessed as inhibition of viral replication after 4 days by luciferase reporter gene assay; format: functional, Hepacivirus hominis, subtype 1a, Huh-7
Hepatitis C virus [14] = test: Antiviral activity against HCV6a infected in human HuH7 cells assessed as inhibition of viral replication after 4 days by luciferase reporter gene assay; format: functional, organism-based, Hepacivirus hominis; conditions: genotype 6a, Huh-7, 96 h
Hepatitis C virus [15] = test: Antiviral activity against HCV5a infected in human HuH7 cells assessed as inhibition of viral replication after 4 days by luciferase reporter gene assay; format: functional, organism-based, Hepacivirus hominis; conditions: genotype 5a, Huh-7, 96 h
Hepatitis C virus [16] = test: Antiviral activity against HCV4a infected in human HuH7 cells assessed as inhibition of viral replication after 4 days by luciferase reporter gene assay; format: functional, organism-based, Hepacivirus hominis; conditions: genotype 4a, Huh-7, 96 h
Hepatitis C virus [17] = test: Antiviral activity against HCV3a infected in human HuH7 cells assessed as inhibition of viral replication after 4 days by luciferase reporter gene assay; format: functional, organism-based, Hepacivirus hominis; conditions: genotype 3a, Huh-7, 96 h
Hepatitis C virus [18] = test: Antiviral activity against HCV2a infected in human HuH7 cells assessed as inhibition of viral replication after 4 days by luciferase reporter gene assay; format: functional, organism-based, Hepacivirus hominis; conditions: genotype 2a, Huh-7, 96 h
[19] = AUC in monkey at 2.5 mg/kg, po; format: ADME, organism-based, Macaca mulatta; design: dose 2.5 mg/kg, route oral; conditions: rhesus monkey, plasma
[20] = Tmax in monkey at 2.5 mg/kg, po; format: ADME, organism-based, Macaca mulatta; design: dose 2.5 mg/kg, route oral; conditions: rhesus monkey, in vivo
[21] = Half life in monkey at 2.5 mg/kg, po; format: ADME, organism-based, Macaca mulatta; design: dose 2.5 mg/kg, route oral; conditions: rhesus monkey, in vivo
[22] = Volume of distribution at steady state in monkey at 1 mg/kg, iv; format: ADME, organism-based, Macaca mulatta; design: dose 1 mg/kg, route intravenous; conditions: rhesus monkey, in vivo, read-out: Vdss
[23] = Half life in monkey at 1 mg/kg, iv; format: ADME, organism-based, Macaca mulatta; design: dose 1 mg/kg, route intravenous; conditions: rhesus monkey, in vivo
[24] = AUC in dog at 2.5 mg/kg, po; format: ADME, organism-based, Canis lupus familiaris; design: dose 2.5 mg/kg, route oral; conditions: plasma
[25] = Oral bioavailability in dog at 2.5 mg/kg; format: ADME, organism-based, Canis lupus familiaris; conditions: in vivo
[26] = Half life in dog at 2.5 mg/kg, po; format: ADME, organism-based, Canis lupus familiaris; design: dose 2.5 mg/kg, route oral; conditions: in vivo
[27] = Tmax in dog at 2.5 mg/kg, po; format: ADME, organism-based, Canis lupus familiaris; design: dose 2.5 mg/kg, route oral; conditions: in vivo
[28] = Clearance in dog at 1 mg/kg, iv; format: ADME, organism-based, Canis lupus familiaris; design: dose 1 mg/kg, route intravenous; conditions: in vivo
[29] = Half life in dog at 1 mg/kg, iv; format: ADME, organism-based, Canis lupus familiaris; design: dose 1 mg/kg, route intravenous; conditions: in vivo
[30] = Cmax in rat at 3 mg/kg, po; format: ADME, organism-based; design: dose 3 mg/kg, route oral; conditions: in vivo
[31] = AUC in rat at 3 mg/kg, po; format: ADME, organism-based; design: dose 3 mg/kg, route oral; conditions: plasma
[32] = Tmax in rat at 3 mg/kg, po; format: ADME, organism-based; design: dose 3 mg/kg, route oral; conditions: in vivo
[33] = Clearance in rat at 3 mg/kg, iv; format: ADME, organism-based; design: dose 3 mg/kg, route intravenous; conditions: in vivo
[34] = Half life in rat at 3 mg/kg, po; format: ADME, organism-based; design: dose 3 mg/kg, route oral; conditions: in vivo
[35] = Half life in rat at 3 mg/kg, iv; format: ADME, organism-based; design: dose 3 mg/kg, route intravenous; conditions: in vivo
[36] = Metabolic stability in rat liver microsomes assessed as compound remaining after 30 mins; format: ADME; conditions: read-out: Stability
Hepatitis C virus [37] = test: Ratio of EC50 for HCV1a H77 infected in human HuH7 cells in presence of 40% human plasma to EC50 for HCV1a H77 infected in human HuH7 cells in absence of 40% human plasma; format: functional, Hepacivirus hominis, genotype 1a H77, Huh-7
Hepatitis C virus [38] = test: Resistant ratio of EC50 for wild type HCV1b to EC50 for HCV1b harboring NS5A L31F mutant infected in human HuH7 cells; format: functional, Hepacivirus hominis, genotype 1b, Huh-7
Hepatitis C virus [39] = test: Resistant ratio of EC50 for wild type HCV1a to EC50 for HCV1a harboring NS5A M28T mutant infected in human HuH7 cells; format: functional, Hepacivirus hominis, subtype 1a, Huh-7
Homo sapiens = species: Homo sapiens; test: Toxicity in HCV1 infected patient assessed as mortality at 5 to 200 mg qd for 3 days; format: organism-based; conditions: in vivo, 72 h
Hepatitis C virus [40] = test: Antiviral activity in HCV1 infected in human assessed as log reduction of viral RNA at 5 to 200 mg qd for 3 days relative to control; format: functional, Hepacivirus hominis, genotype 1
[41] = Half life in HCV1 infected patient at 5 to 200 mg qd for 3 days; format: ADME, organism-based; conditions: human, in vivo
Hepatitis C virus [42] = test: Resistant ratio of EC50 for wild type HCV1b to EC50 for HCV1b harboring NS5A L31V and Y93H mutant infected in human HuH7 cells; format: functional, Hepacivirus hominis, genotype 1b, Huh-7
Hepatitis C virus [43] = test: Resistant ratio of EC50 for wild type HCV1b to EC50 for HCV1b harboring NS5A L31M and Y93H mutant infected in human HuH7 cells; format: functional, Hepacivirus hominis, genotype 1b, Huh-7
Hepatitis C virus [44] = test: Resistant ratio of EC50 for wild type HCV1b to EC50 for HCV1b harboring NS5A L31F and Y93H mutant infected in human HuH7 cells; format: functional, Hepacivirus hominis, genotype 1b, Huh-7
Hepatitis C virus [45] = test: Resistant ratio of EC50 for wild type HCV1b to EC50 for HCV1b harboring NS5A R30Q and Y93H mutant infected in human HuH7 cells; format: functional, Hepacivirus hominis, genotype 1b, Huh-7
Hepatitis C virus [46] = test: Resistant ratio of EC50 for wild type HCV1b to EC50 for HCV1b harboring NS5A L28M and Y93H mutant infected in human HuH7 cells; format: functional, Hepacivirus hominis, genotype 1b, Huh-7

## COC(=O)N[C@H](C(=O)N1CCC[C@H]1C(=O)Nc1ccc([C@@H]2CC[C@@H](c3ccc(NC(=O)[C@@H]4CCCN4C(=O)[C@@H](NC(=O)OC)C(C)C)cc3)N2c2ccc(C(C)(C)C)cc2)cc1)C(C)C [OMBITASVIR]
Hepatitis C virus [1]
  Ratio EC50: 8
Hepatitis C virus [2]
  Ratio EC50: 661
Hepatitis C virus [3]
  Ratio EC50: 800
Hepatitis C virus [4]
  Ratio EC50: 243
Hepatitis C virus [5]
  Efficacy: 24%
Hepatitis C virus [6]
  Efficacy: 11%
Hepatitis C virus [7]
  Efficacy: 35%
Hepatitis C virus [8]
  Efficacy: 104%
Hepatitis C virus [9]
  Efficacy: 86%
Hepatitis C virus [10]
  Efficacy: 127%
Hepatitis C virus [11]
  Efficacy: 17%
Hepatitis C virus [12]
  Efficacy: 18%
Hepatitis C virus [13]
  Efficacy: 87%
Hepatitis C virus [14]
  EC50: 0.415 nM
Hepatitis C virus [15]
  EC50: 0.0043 nM
Hepatitis C virus [16]
  EC50: 0.00171 nM
Hepatitis C virus [17]
  EC50: 0.0193 nM
Hepatitis C virus [18]
  EC50: 0.0124 nM
[19]
  AUC: 2400 ng·h/mL
[20]
  Tmax: 3.3 h
[21]
  half-life: 5 h
[22]
  Vd: 1.5 L/kg
[23]
  half-life: 4.4 h
[24]
  AUC: 8000 ng·h/mL
[25]
  bioavailability: 57%
[26]
  half-life: 7.3 h
[27]
  Tmax: 3.3 h
[28]
  clearance: 3 mL/min/kg
[29]
  half-life: 7.9 h
[30]
  Cmax: 10 ng/mL
[31]
  AUC: 290 ng·h/mL
[32]
  Tmax: 3.7 h
[33]
  clearance: 10.8 mL/min/kg
[34]
  half-life: 15.9 h
[35]
  half-life: 9.9 h
[36]
  remaining at 0.5 h: 73%
Hepatitis C virus [37]
  Ratio EC50: 13
Hepatitis C virus [38]
  Ratio EC50: 10
Hepatitis C virus [39]
  Ratio EC50: 8965
Homo sapiens
  Activity: Non-toxic
Hepatitis C virus [40]
  Activity: <=3.1 log10IU/ml
[41]
  half-life: 25 h
Hepatitis C virus [42]
  Ratio EC50: 12323
Hepatitis C virus [43]
  Ratio EC50: 142
Hepatitis C virus [44]
  Ratio EC50: 10270
Hepatitis C virus [45]
  Ratio EC50: 284
Hepatitis C virus [46]
  Ratio EC50: 415
